Consider 16 compounds from US9951058B2, “Compound, pharmaceutically acceptable salt or optical isomer thereof, method for preparing the same, and pharmaceutical composition for prevention or treatment of viral diseases containing same as active ingredient” (Korea Research Institute of Chemical Technology, priority 2012, dated 2018).

In brackets after ≈: the same amount, converted by molar mass. Like-named read-outs stand apart in the source and are kept apart here. Where only a bound is given, the exact number is not on record here.

Data set [1] concerns 48 rhinovirus types and coxsackievirus A21, B3, enterovirus 70 and echovirus 11. Particulars: Pattick et al. 1999; cited from earlier work.
The conditions of data set [2]: cited from earlier work; for therapeutic effect: clinical.
The subject of another data set is poliovirus 3 (PV3). As to the kind of experiment: microbe, parasite or virus in culture. In kind it is cell-based. Particulars: for EC50: Enterovirus C, 72 h, read-out: EC50 PV3; for EC50 PV3: 100 CCID50, MTS, 37° C., 3 days.
Another data set concerns HRV 71. The data set can be described thus: Cytopathic effect (CPE) inhibition assay. In kind it is cell-based, human rhinovirus. Particulars: for EC50: Human rhinovirus sp., 72 h, read-out: EC50 HRV 71.
The next data set relates to HRV 21. The data set can be described thus: Cytopathic effect (CPE) inhibition assay. In kind it is cell-based, human rhinovirus. Particulars: for EC50: Human rhinovirus sp., 72 h, read-out: EC50 HRV 21. On the technique in general: Damage to the host cells serves as the signal in cytopathic effect assays.
Data set [3] can be described thus: Cytotoxicity (CC50) in mock-infected cells, CPE inhibition assay, MTT. Particulars: human.
A short description of data set [4]: Cytotoxicity (CC50) in multicycle CPE reduction assay, MTS. The following applies: human.
Data set [5] relates to coxsackievirus B1 (Cox B1). As to the kind of experiment: Multicycle cytopathic effect (CPE) reduction assay. In kind it is cell-based. Particulars: for EC50: Enterovirus B, B1, 72 h, read-out: EC50 CoxB1; for EC50 CoxB1: 100 CCID50, MTS, 37° C., 3 days.
The subject of a further data set is HRV 14. The data set can be described thus: Cytopathic effect (CPE) inhibition assay. The data set is classed as cell-based, human rhinovirus. The following applies: for EC50: Human rhinovirus sp., HeLa, 72 h, read-out: EC50 HRV 14.
Data set [6] has as its system coxsackievirus B3 (Cox B3). As to the kind of experiment: Multicycle cytopathic effect (CPE) reduction assay. In kind it is cell-based. The following applies: for EC50: Enterovirus B, B3, 72 h, read-out: EC50 CoxB3; for EC50 CoxB3: 100 CCID50, MTS, 37° C., 3 days.
The subject of a further data set is HeLa. The data set can be described thus: Cytotoxicity (CC50) in multicycle CPE reduction assay, MTS. Particulars: Table 4; MTS, 37° C., 3 days.
The test system of data set [7] is HeLa (human cervical cancer cells).
The nature of another data set: in vitro. Particulars: human.
For data set [8] the following is noted: in vivo, cited from earlier work.
The subject of data set [9] is rhinoviruses and enteroviruses. The following applies: cited from earlier work.
The test system of data set [10] is HeLa (human cervical cancer cells). The data set can be described thus: Cytotoxicity (CC50) in mock-infected cells, CPE inhibition assay, MTT. Particulars: Table 3; mock-infected cells, MTT assay, 2-3 days. A general note: Tetrazolium dyes change colour on reduction, which living cells bring about.
[11] abbreviates: host cell HeLa, 3 days, MEM/2% FBS, MTT assay.

`CCOC(=O)/C=C/[C@H](C[C@@H]1CCNC1=O)NC(=O)[C@@H](CC(=O)[C@@H](NC(=O)c1cc(C)on1)C(C)C)Cc1ccc(F)cc1` [AG 7088]: in data set [1], the “concentration range of effect in the cell culture” value is reported as “nanomolar concentration range”.
In the case of `CC(C)S(=O)(=O)n1c(N)nc2ccc(/C(=N/O)c3ccccc3)cc21` [Enviroxime], the therapeutic effect entry in [2] was “few or no therapeutic effects”. Moreover, in data set [2] (in vivo), the pharmacokinetics result is given as “insufficient pharmacokinetics” and the side effects result is reported as “unwanted side effects”.
For the compound `CC(C)c1ccc2c(c1)OC1(O)c3c(cccc3[N+](=O)[O-])C(=O)C21NC(=O)C(=O)Cc1ccccc1[N+](=O)[O-]` (stereo not drawn) [Example 25, N-(4b-hydroxy-7-isopropyl-4-nitro-10-oxo-4b, 10-dihydro-9bH-indeno[1,2-b]benzofuran-9b-yl)-3-(2-nitrophenyl)-2-oxo propanamide], the EC50 is above 9.5 µg/mL in the data set with poliovirus 3 (PV3); above 2.6 µg/mL with HRV 71 (HeLa); above 2.6 µg/mL with HRV 21 (HeLa); below 1 µg/mL in [5]; above 2.6 µg/mL in the data set with HRV 14; below 1 µg/mL in data set [6]. Besides, the CC50 in [3] is 2.6 µg/mL (≈ 4.89 µM). Besides, the CC50 at 3 days in [4] was 9.5 µg/mL (≈ 17.9 µM).
With `CC(C)c1ccc2c(c1)OC1(O)c3ccccc3C(=O)C21NC(=O)CCC(=O)O` (stereo not drawn) [Example 57, 4-((4b-hydroxy-7-isopropyl-10-oxo-4b, 10-dihydro-9bH-indeno[1,2-b]benzofuran-9b-yl)amino)-4-oxo butanoic acid], in the data set with poliovirus 3 (PV3), the “EC50 PV3” value is above 10.0 µg/mL. Also, in the data set with HRV 71 (setting [11]), the “EC50 HRV 71” value was above 10.0 µg/mL. For the same compound, in the data set on HRV 21 (setting [11]), the “EC50 HRV 21” value is above 10.0 µg/mL. The “CC50 Cytotoxicity” value (in the data set with HeLa; in data set [7]) was above 10.0 µg/mL each time. The “EC50 CoxB1” value in [5] is below 1.0 µg/mL. For the same compound, in the data set with HRV 14 (setting [11]), the “EC50 HRV 14” value is below 10.0 µg/mL. Besides, the “EC50 CoxB3” value in data set [6] is below 1.0 µg/mL.
In the case of `CC(=N)NC12C(=O)c3ccccc3C1(O)Oc1cc(C(C)C)ccc12` (stereo not drawn) [Example 60, N-(4b-hydroxy-7-isopropyl-10-oxo-4b, 10-dihydro-9bH-indeno[1,2-b]benzofuran-9b-yl)acetimide amide], the 50% effective concentration (EC50) in the data set on poliovirus 3 (PV3) was above 10 µg/mL; in the data set on HRV 71 (setting [11]), above 10 µg/mL; in the data set with HRV 21 (setting [11]) it was above 10 µg/mL; in data set [5], below 1 µg/mL; with HRV 14 (setting [11]), below 10 µg/mL; in [6], below 10 µg/mL. This compound registered a CC50 in “in vitro” above 10 µg/mL. Further, the CC50 at 3 days in data set [4] is above 10 µg/mL.
For `CC(C)c1ccc2c(c1)OC1(O)c3ccccc3C(=O)C21NC(N)=S` (stereo not drawn) [Example 61, 1-(4b-hydroxy-7-isopropyl-10-oxo-4b, 10-dihydro-9bH-indeno[1,2-b]benzofuran-9b-yl)thiourea], the EC50 is above 10 µg/mL in the data set with poliovirus 3 (PV3); above 10 µg/mL with HRV 71 (setting [11]); above 10 µg/mL with HRV 21 (setting [11]); below 0.1 µg/mL in data set [5]; below 10 µg/mL in the data set with HRV 14 (setting [11]); below 1 µg/mL in data set [6]. Besides, the CC50 in “in vitro” is above 10 µg/mL. The CC50 at 3 days in [4] was above 10 µg/mL.
Consider `CCNC(=O)OC12C(=O)c3ccccc3C1(OC)Oc1cc(C(C)C)ccc12` (stereo not drawn) [Example 62, 7-isopropyl-4b-methoxy-10-oxo-4b, 10-dihydro-9bH-indeno[1,2-b]benzofuran-9b-yl ethyl carbamate], for which the half-maximal effective concentration (EC50) in the data set with poliovirus 3 (PV3) was above 10 µg/mL; in the data set on HRV 71 (setting [11]) it was above 10 µg/mL; in the data set with HRV 21 (setting [11]), above 10 µg/mL; in data set [5], below 10 µg/mL; with HRV 14 (setting [11]) it was above 10 µg/mL; in data set [6], below 10 µg/mL. In addition, the CC50 in the data set “in vitro” was above 10 µg/mL. Moreover, in data set [4], the CC50 at 3 days is above 10 µg/mL.
Take `CC(C)c1ccc2c(c1)OC1(O)c3ccccc3C(=O)C21NC(=O)CNC(=O)OC(C)(C)C` (stereo not drawn) [Example 63, tert-butyl (2-((4b-hydroxy-7-isopropyl-10-oxo-4b, 10-dihydro-9bH-indeno[1,2-b]benzofuran-9b-yl)amino)-2-oxoethyl)carbamate]: the 50% effective concentration (EC50) in the data set with poliovirus 3 (PV3) is below 10 µg/mL; in the data set on HRV 71 (setting [11]), above 10 µg/mL; in the data set on HRV 21 (setting [11]), above 10 µg/mL; in data set [5], below 0.1 µg/mL; with HRV 14 (setting [11]), below 1 µg/mL; in data set [6] it was below 0.1 µg/mL. In “in vitro”, this compound returned a CC50 above 10 µg/mL. The same compound returned a CC50 at 3 days in data set [4] above 10 µg/mL.
On to `CC(C)c1ccc2c(c1)OC1(O)c3ccccc3C(=O)C21NC(=O)CN` (stereo not drawn) [Example 64, 2-amino-N-(4b-hydroxy-7-isopropyl-10-oxo-4b, 10-dihydro-9bH-indeno[1,2-b]benzofuran-9b-yl)acetamide], for which the EC50 in the data set with poliovirus 3 (PV3) was above 10 µg/mL; in the data set on HRV 71 (setting [11]) it was above 10 µg/mL; in the data set on HRV 21 (setting [11]), above 10 µg/mL; in data set [5], below 0.1 µg/mL; in the data set with HRV 14 (setting [11]), below 10 µg/mL; in [6] it was below 0.1 µg/mL. The compound further gave a CC50 in the data set “in vitro” above 10 µg/mL. The CC50 at 3 days in [4] was above 10 µg/mL.
Take `Cc1cc(CCCOc2c(C)cc(-c3noc(C(F)(F)F)n3)cc2C)on1` [Pleconaril]: the oral bioavailability result in data set [8] (po) was “very good oral bioavailability”. The therapeutic effect result in [2] is reported as “therapy success was too low”. In addition, the side effects entry in [2] (in vivo) was “side effects were observed”.
`Cc1cc(CCCCCOc2c(Cl)cc(C3=NCCO3)cc2Cl)on1` [WIN 54954]: in [8], the metabolization and excretion entry is “rapid metabolization and excretion”. Moreover, the side effects entry in data set [2] (in vivo) is listed as “skin rash”.
As for `CCC(=O)C(CCCCCCOc1ccc(OC)cc1Cl)C(=O)CC` [arildone], the bioavailability entry in data set [8] is recorded as “low bioavailability”. The “antiviral effects in the cell culture” value in data set [9] is reported as “very good antiviral effects”.
`Cc1cc(CCCCCCCOc2ccc(C3=NCCO3)cc2)on1` [disoxaril]: in data set [8], the bioavailability result is reported as “low bioavailability”; the metabolization and excretion result was “rapid metabolization and excretion”. For the same compound, the “antiviral effects in the cell culture” value in data set [9] is on record as “very good antiviral effects”.
For `CCOC(=O)c1ccc(OCCC2CCN(c3ccc(C)nn3)CC2)cc1` [pirodavir], the “antiviral effects in the cell culture” value in [9] is “very good antiviral effects”.
In the case of “N-(1-amino-4b-hydroxy-7-isopropyl-10-oxo-4b, 10-dihydro-9bH-indeno[1,2-b]benzofuran-9b-yl)-2-oxo hexanamide [Example 50]”, in the data set on poliovirus 3 (PV3), the “EC50 PV3” value is below 1.0 µg/mL. For the same compound, the “EC50 HRV 71” value in the data set on HRV 71 (setting [11]) is above 10.0 µg/mL. In addition, the “EC50 HRV 21” value in the data set with HRV 21 (setting [11]) is above 10.0 µg/mL. Also, the “CC50 Cytotoxicity” value (in [10]; in the data set on HeLa) was above 10.0 µg/mL in each case. Besides, in data set [5], the “EC50 CoxB1” value is below 0.1 µg/mL. For the same compound, the “EC50 HRV 14” value in the data set on HRV 14 (setting [11]) was below 0.1 µg/mL. Besides, the “EC50 CoxB3” value in data set [6] was below 0.1 µg/mL.
As for “N-(4b-hydroxy-7-isopropyl-4-nitro-10-oxo-4b, 10-dihydro-9bH-indeno[1,2-b]benzofuran-9b-yl)-2-oxo-4-phenyl butanamide [Example 59]”, the “EC50 PV3” value in the data set with poliovirus 3 (PV3) was below 0.1 µg/mL. Moreover, the “EC50 HRV 71” value in the data set with HRV 71 (setting [11]) was above 8.6 µg/mL. For the same compound, the “EC50 HRV 21” value in the data set on HRV 21 (setting [11]) was above 8.6 µg/mL. The figures for the “CC50 Cytotoxicity” value (in data set [10]; with HeLa) were 8.6 µg/mL and above 10.0 µg/mL, respectively. Further, in data set [5], the “EC50 CoxB1” value was below 0.1 µg/mL. Besides, the “EC50 HRV 14” value with HRV 14 (setting [11]) is below 0.1 µg/mL. The “EC50 CoxB3” value in [6] was below 0.1 µg/mL.

The term EC50 denotes the concentration at which the effect is half-maximal.
